ChEMBL document CHEMBL1151028, “Synthesis of -hydroxy statine through a facially selective osmylation of a chiral -amido crotonate” (Bioorg Med Chem Lett, 1995)
Where a SMILES comes first, the peptide text is derived from it. [ ]: non-standard residue; d: D form. The star is where a group is joined. Sta = CC(C)C[C@H](N)[C@@H](O)CC(=O)O; Boc = CC(C)(C)OC(=O)*; GABA = NCCCC(=O)O

target: T1, Renin (Homo sapiens, UniProt P00797); assay: Inhibitory activity against renin was determined
T1 sequence (P00797 whole entry): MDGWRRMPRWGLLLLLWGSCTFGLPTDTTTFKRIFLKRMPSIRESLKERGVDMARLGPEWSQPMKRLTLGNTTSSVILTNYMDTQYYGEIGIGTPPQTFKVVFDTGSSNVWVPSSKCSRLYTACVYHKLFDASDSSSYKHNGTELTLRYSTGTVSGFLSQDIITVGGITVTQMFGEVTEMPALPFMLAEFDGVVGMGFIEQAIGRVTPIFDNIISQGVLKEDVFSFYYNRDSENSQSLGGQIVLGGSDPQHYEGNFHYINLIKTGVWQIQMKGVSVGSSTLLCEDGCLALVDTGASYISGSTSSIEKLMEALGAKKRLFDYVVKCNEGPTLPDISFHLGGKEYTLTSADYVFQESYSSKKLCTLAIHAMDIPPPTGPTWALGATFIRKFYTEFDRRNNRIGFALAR

IC50 [µM]	Compound
3.2	CC(C)C[C@H](NC(=O)[C@H](Cc1cnc[nH]1)NC(=O)[C@H](Cc1ccccc1)NC(=O)OC(C)(C)C)[C@@H](O)CC(=O)NCCCC(=O)O (Boc-FH[Sta][GABA]-OH)
3	CC(C)C[C@H](NC(=O)[C@H](Cc1c[nH]cn1)NC(=O)[C@H](Cc1ccccc1)NC(=O)OC(C)(C)C)[C@@H](O)[C@H](O)C(=O)NCCCC(=O)O
63	CC(C)C[C@H](NC(=O)[C@H](Cc1cnc[nH]1)NC(=O)[C@H](Cc1ccccc1)NC(=O)OC(C)(C)C)[C@H](O)[C@@H](O)C(=O)NCCCC(=O)O
